For test [1], the target named is T1, recombinant human ACC1 (acetyl-CoA carboxylase 1) (Homo sapiens, UniProt Q13085).
T1 construct: NM_198834, amino acids 39—end; FLAG (C); made in house; host or cells: baculovirus-transfected insect cells (Hi5)
Nature of the test: Human ACC1 enzyme assay (HTRF ADP detection).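 Further: ADP by-product quantified by competitive HTRF immunoassay with europium cryptate anti-ADP antibody and d2-labelled ADP, read after 1 h binding at 22 °C, enzyme near 2.5 ng/µl.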 Format: biochemical. As to conditions: 50 μM ATP, 20 μM acetyl-CoA, 15 min pre-incubation, 20 min at 22° C.; read-out: ACC 1 IC50.
Protocol: The basic principle of the assay is the measurement of adenosine diphosphate (ADP), which is formed as a by-product, by means of an HTRF®-based competitive immunoassay (HTRF=Homogeneous Time Resolved Fluorescence).
The amount of complex of d2-labelled ADP and europium cryptate-labelled anti-ADP antibody was then determined by measuring the resonance energy transfer of europium cryptate to d2.

Test [2] deals with T2, ACC2 (acetyl-CoA carboxylase 2) (Homo sapiens, UniProt O00763).
T2 construct: catalogue no; 50201, amino acids 39—end, expressed in baculovirus-transfected Sf9 insect cells; His (C); purchased BPS Bioscience (San Diego, Calif.) 50201; host or cells: baculovirus-transfected Sf9 insect cells
Nature of the test: Human ACC2 enzyme assay (HTRF ADP detection). Format: biochemical. The conditions noted are these: 20 μM acetyl-CoA, 15 min pre-incubation, 20 min at 22° C.; read-out: ACC 2 IC50. (In general: Time-resolved FRET reads energy transfer from a long-lived donor to a nearby acceptor.)

Each structure is given as a SMILES string.

T2 sequence (O00763 39-2458 limits assumed): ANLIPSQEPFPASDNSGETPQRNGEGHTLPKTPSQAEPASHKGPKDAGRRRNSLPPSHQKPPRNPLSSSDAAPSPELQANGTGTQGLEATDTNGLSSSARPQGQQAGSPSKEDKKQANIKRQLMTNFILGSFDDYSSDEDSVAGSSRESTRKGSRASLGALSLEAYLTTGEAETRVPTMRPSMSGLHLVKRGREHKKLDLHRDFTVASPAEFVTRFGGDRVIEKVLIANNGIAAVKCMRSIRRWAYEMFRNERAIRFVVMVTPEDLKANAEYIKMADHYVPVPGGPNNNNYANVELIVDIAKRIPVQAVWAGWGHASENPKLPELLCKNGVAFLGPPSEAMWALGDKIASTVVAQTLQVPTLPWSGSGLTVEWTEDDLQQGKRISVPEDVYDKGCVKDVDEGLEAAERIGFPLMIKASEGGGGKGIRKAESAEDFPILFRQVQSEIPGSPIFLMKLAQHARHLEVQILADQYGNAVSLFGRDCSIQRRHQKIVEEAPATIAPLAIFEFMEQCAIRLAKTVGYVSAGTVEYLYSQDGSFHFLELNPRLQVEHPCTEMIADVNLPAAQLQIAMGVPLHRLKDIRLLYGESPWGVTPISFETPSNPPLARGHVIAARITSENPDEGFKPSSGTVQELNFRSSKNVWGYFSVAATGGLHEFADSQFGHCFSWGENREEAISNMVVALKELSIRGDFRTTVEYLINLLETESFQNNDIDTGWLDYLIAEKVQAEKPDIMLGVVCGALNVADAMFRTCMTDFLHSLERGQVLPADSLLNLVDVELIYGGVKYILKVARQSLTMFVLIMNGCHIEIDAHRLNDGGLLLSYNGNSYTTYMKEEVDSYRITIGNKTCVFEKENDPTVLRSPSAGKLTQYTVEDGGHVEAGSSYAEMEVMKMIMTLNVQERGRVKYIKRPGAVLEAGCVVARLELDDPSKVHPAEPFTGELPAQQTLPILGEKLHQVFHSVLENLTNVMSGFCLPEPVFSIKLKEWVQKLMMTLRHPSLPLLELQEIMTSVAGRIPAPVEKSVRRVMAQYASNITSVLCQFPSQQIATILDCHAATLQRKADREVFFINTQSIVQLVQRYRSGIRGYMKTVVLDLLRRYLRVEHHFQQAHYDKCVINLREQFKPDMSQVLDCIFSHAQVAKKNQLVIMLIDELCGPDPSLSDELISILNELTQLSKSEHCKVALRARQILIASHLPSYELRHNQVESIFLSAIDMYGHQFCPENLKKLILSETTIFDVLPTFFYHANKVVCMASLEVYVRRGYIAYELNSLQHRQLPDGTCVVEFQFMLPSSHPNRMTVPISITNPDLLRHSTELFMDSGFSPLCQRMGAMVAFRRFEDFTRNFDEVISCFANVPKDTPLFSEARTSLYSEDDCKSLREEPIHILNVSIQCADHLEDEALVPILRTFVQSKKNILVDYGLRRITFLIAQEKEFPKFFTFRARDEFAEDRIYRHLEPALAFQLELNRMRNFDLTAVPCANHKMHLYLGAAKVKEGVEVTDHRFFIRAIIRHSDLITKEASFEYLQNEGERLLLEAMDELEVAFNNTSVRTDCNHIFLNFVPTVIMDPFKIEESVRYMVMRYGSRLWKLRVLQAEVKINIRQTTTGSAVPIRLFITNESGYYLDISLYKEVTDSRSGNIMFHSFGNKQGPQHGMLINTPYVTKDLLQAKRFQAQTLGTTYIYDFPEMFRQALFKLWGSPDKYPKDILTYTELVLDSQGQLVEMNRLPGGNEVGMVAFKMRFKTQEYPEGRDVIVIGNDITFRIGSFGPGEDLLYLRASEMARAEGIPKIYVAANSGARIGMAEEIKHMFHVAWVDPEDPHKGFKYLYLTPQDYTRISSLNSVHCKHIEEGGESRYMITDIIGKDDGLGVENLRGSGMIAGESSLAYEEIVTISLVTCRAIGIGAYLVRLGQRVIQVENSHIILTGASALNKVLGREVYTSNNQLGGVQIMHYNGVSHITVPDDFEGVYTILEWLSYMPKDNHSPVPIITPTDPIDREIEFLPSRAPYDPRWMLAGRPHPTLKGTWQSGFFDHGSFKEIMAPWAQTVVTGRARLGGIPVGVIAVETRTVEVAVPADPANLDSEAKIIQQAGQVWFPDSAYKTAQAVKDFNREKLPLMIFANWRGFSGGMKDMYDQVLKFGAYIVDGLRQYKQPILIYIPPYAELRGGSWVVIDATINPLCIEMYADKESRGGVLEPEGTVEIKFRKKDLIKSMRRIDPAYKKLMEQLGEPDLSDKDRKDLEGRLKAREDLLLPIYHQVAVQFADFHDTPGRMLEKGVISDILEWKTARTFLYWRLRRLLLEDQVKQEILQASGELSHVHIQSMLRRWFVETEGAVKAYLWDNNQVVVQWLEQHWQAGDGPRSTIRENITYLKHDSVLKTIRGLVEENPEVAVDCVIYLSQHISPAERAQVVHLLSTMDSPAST

Broadly, the IC50 is the concentration that gives 50% inhibition. Consider `Cc1ccc(-c2ccc(Cl)cc2)cc1C1=C(O)C2(CCCCCCC2)NC1=O` [Example 1-23, 3-(4′-chloro-4-methylbiphenyl-3-yl)-4-hydroxy-1-azaspiro[4.7]dodec-3-en-2-one], for which the IC50 in test [1] amounted to 584 nM; in test [2], 485 nM.

On to `Cc1ccc(-c2ccc(Cl)cc2)cc1C1=C(O)C2(CCC(C(C)C)CC2)NC1=O` (stereo not drawn) [Example 1-24, 3-(4′-chloro-4-methylbiphenyl-3-yl)-4-hydroxy-8-(propan-2-yl)-1-azaspiro[4.5]dec-3-en-2-one], for which the IC50 turned out to be 340 nM in test [1] and 210 nM in test [2].

In the case of `Cc1ccc(-c2ccc(Cl)cc2)cc1C1=C(O)C2(Cc3ccccc3C2)NC1=O` [Example 1-25, 4′-(4′-chloro-4-methylbiphenyl-3-yl)-3′-hydroxy-1,3-dihydrospiro[indene-2,2′-pyrrol]-5′(1′H)-one], the results for the IC50 in test [1] and in test [2] were 495 nM and 3360 nM, respectively.

Turning to `Cc1ccc(-c2ccc(Cl)cc2)cc1C1=C(O)C2(CCCCCC2)NC1=O` [Example 1-26, 3-(4′-chloro-4-methylbiphenyl-3-yl)-4-hydroxy-1-azaspiro[4.6]undec-3-en-2-one], the IC50 in test [1] stood at 540 nM; in test [2] it was 1250 nM.

Regarding `Cc1ccc(-c2ccc(Cl)cc2)cc1C1=C(O)CN(CC(C)C)C1=O` [Example 1-27, 3-(4′-chloro-4-methylbiphenyl-3-yl)-4-hydroxy-1-(2-methylpropyl)-1,5-dihydro-2H-pyrrol-2-one], the IC50 in test [1] is 472 nM; in test [2], more than 20000 nM.

Turning to `CCOC1CCC2(CC1)NC(=O)C(c1cc(-c3ccc(Cl)cc3)ccc1C)=C2O` (stereo not drawn) [Example 1-28, 3-(4′-chloro-4-methylbiphenyl-3-yl)-8-ethoxy-4-hydroxy-1-azaspiro[4.5]dec-3-en-2-one], the IC50 in test [1] was found to be 443 nM; in test [2], 192 nM.

With `O=C1N[C@]2(CC[C@@H](OCC(F)(F)F)CC2)C(O)=C1c1cc(-c2ccc(Cl)cc2)ccc1Cl` [Example 1-29, (5s,8s)-3-(4,4′-dichlorobiphenyl-3-yl)-4-hydroxy-8-(2,2,2-trifluoroethoxy)-1-azaspiro[4.5]dec-3-en-2-one], the IC50 in test [1] stood at 270 nM; in test [2] it was 1900 nM.

`Cc1ccc(-c2ccc(Cl)cc2)c(C)c1C1=C(O)[C@]2(CC[C@H](OCC(F)(F)F)CC2)NC1=O` [Example 1-30, (5s,8s)-3-(4′-chloro-2,4-dimethylbiphenyl-3-yl)-4-hydroxy-8-(2,2,2-trifluoroethoxy)-1-azaspiro[4.5]dec-3-en-2-one]: the results for the IC50 in test [1] and in test [2] were 542 nM and 300 nM, respectively.

With `Cc1ccc(-c2ccc(F)cc2)c(C)c1C1=C(O)C2(CCC(OCC(F)(F)F)CC2)NC1=O` (stereo not drawn) [Example 1-31, 3-(4′-fluoro-2,4-dimethylbiphenyl-3-yl)-4-hydroxy-8-(2,2,2-trifluoroethoxy)-1-azaspiro[4.5]dec-3-en-2-one], the IC50 in test [1] came out at 963 nM; in test [2], 5960 nM.

With `Cc1ccc(-c2ccc(F)cc2)cc1C1=C(O)C2(CCC(OCC(F)(F)F)CC2)NC1=O` (stereo not drawn) [Example 1-32, 3-(4′-fluoro-4-methylbiphenyl-3-yl)-4-hydroxy-8-(2,2,2-trifluoroethoxy)-1-azaspiro[4.5]dec-3-en-2-one], the IC50 came out at 860 nM in test [1] and 14000 nM in test [2].

With `Cc1ccc(-c2ccc(Cl)cc2)cc1C1=C(O)C2(CCC(OCC(F)(F)F)CC2)NC1=O` (stereo not drawn) [Example 1-33, 3-(4′-chloro-4-methylbiphenyl-3-yl)-4-hydroxy-8-(2,2,2-trifluoroethoxy)-1-azaspiro[4.5]dec-3-en-2-one], the IC50 amounted to 359 nM in test [1] and 535 nM in test [2].

On to `Cc1ccc(-c2ccc(Cl)cc2)c(C)c1C1=C(O)C2(CCC3(CCCO3)CC2)NC1=O` (stereo not drawn) [Example 1-34, 11-(4′-chloro-2,4-dimethylbiphenyl-3-yl)-12-hydroxy-1-oxa-9-azadispiro[4.2.4.2]tetradec-11-en-10-one], for which the IC50 was 470 nM in test [1] and 9400 nM in test [2].

As for `Cc1ccc(-c2ccc(F)c(F)c2)cc1C1=C(O)C2(CCC3(CCCO3)CC2)NC1=O` (stereo not drawn) [Example 1-35, 11-(3′,4′-difluoro-4-methylbiphenyl-3-yl)-12-hydroxy-1-oxa-9-azadispiro[4.2.4.2]tetradec-11-en-10-one], the IC50 came out at 298 nM in test [1] and 4000 nM in test [2].

As to `Cc1ccc(-c2cc(F)c(F)c(F)c2)cc1C1=C(O)C2(CCOCC2)NC1=O` [Example 1-36, 4-hydroxy-3-(3′,4′,5′-trifluoro-4-methylbiphenyl-3-yl)-8-oxa-1-azaspiro[4.5]dec-3-en-2-one], the figures for the IC50 in test [1] and in test [2] were 792 nM and more than 20000 nM, respectively.

For `Cc1ccc(-c2ccc(F)c(F)c2)cc1C1=C(O)C2(CCOCC2)NC1=O` [Example 1-37, 3-(3′,4′-difluoro-4-methylbiphenyl-3-yl)-4-hydroxy-8-oxa-1-azaspiro[4.5]dec-3-en-2-one], the figures for the half-maximal inhibitory concentration (IC50) in test [1] and in test [2] were 810 nM and more than 20000 nM, respectively.

For `O=C1NC2(CCOCC2)C(O)=C1c1cc(-c2cc(F)c(F)c(F)c2)ccc1Cl` [Example 1-38, 3-(4-chloro-3′,4′,5′-trifluorobiphenyl-3-yl)-4-hydroxy-8-oxa-1-azaspiro[4.5]dec-3-en-2-one], the IC50 in test [1] was 497 nM; in test [2], more than 20000 nM.

Turning to `Cc1ccc(-c2ccc(Cl)c(C3=C(O)C4(CCOCC4)NC3=O)c2)cc1F` [Example 1-39, 3-(4-chloro-3′-fluoro-4′-methylbiphenyl-3-yl)-4-hydroxy-8-oxa-1-azaspiro[4.5]dec-3-en-2-one], the IC50 is 663 nM in test [1] and more than 20000 nM in test [2].

`Cc1ccc(-c2ccc(F)cc2)c(C)c1C1=C(O)C2(CCCCC2)NC1=O` [Example 1-40, 3-(4′-fluoro-2,4-dimethylbiphenyl-3-yl)-4-hydroxy-1-azaspiro[4.5]dec-3-en-2-one]: the IC50 in test [1] stood at 1200 nM; in test [2] it was 15000 nM.

On to `O=C1NC2(CCOCC2)C(O)=C1c1cc(-c2ccc(F)cc2)ccc1Cl` [Example 1-41, 3-(4-chloro-4′-fluorobiphenyl-3-yl)-4-hydroxy-8-oxa-1-azaspiro[4.5]dec-3-en-2-one], for which the IC50 in test [1] was 751 nM; in test [2] it was more than 20000 nM.

In the case of `CO[C@H]1CC[C@]2(CC1)NC(=O)C(c1c(C)cc(C)c(-c3ccc(F)cc3)c1C)=C2O` [Example 1-42, (5s,8s)-3-(4′-fluoro-2,4,6-trimethylbiphenyl-3-yl)-4-hydroxy-8-methoxy-1-azaspiro[4.5]dec-3-en-2-one], the IC50 in test [1] is more than 20000 nM; in test [2], 669 nM.

On to `CO[C@H]1CC[C@]2(CC1)NC(=O)C(c1cc(-c3ccc(F)c(Cl)c3)ccc1C)=C2O` [Example 1-43, (5s,8s)-3-(3′-chloro-4′-fluoro-4-methylbiphenyl-3-yl)-4-hydroxy-8-methoxy-1-azaspiro[4.5]dec-3-en-2-one], for which the IC50 in test [1] is 304 nM; in test [2] it was 10200 nM.

Turning to `CO[C@H]1CC[C@]2(CC1)NC(=O)C(c1cc(-c3ccc(F)cc3)ccc1Cl)=C2O` [Example 1-44, (5s,8s)-3-(4-chloro-4′-fluorobiphenyl-3-yl)-4-hydroxy-8-methoxy-1-azaspiro[4.5]dec-3-en-2-one], the results for the 50% inhibitory concentration (IC50) in test [1] and in test [2] were 915 nM and more than 20000 nM, respectively.

Take `CO[C@H]1CC[C@]2(CC1)NC(=O)C(c1c(C)ccc(-c3ccc(F)cc3)c1C)=C2O` [Example 1-45, (5s,8s)-3-(4′-fluoro-2,4-dimethylbiphenyl-3-yl)-4-hydroxy-8-methoxy-1-azaspiro[4.5]dec-3-en-2-one]: the IC50 in test [1] was determined as 776 nM; in test [2], 3610 nM.

Turning to `COCC1(C)NC(=O)C(c2cc(-c3ccc(Cl)cc3)ccc2C)=C1O` (stereo not drawn) [Example 1-46, 3-(4′-chloro-4-methylbiphenyl-3-yl)-4-hydroxy-5-(methoxymethyl)-5-methyl-1,5-dihydro-2H-pyrrol-2-one], the IC50 is 812 nM in test [1] and 15800 nM in test [2].

As to `COCCC1(C)NC(=O)C(c2cc(-c3ccc(Cl)cc3)ccc2C)=C1O` (stereo not drawn) [Example 1-47, 3-(4′-chloro-4-methylbiphenyl-3-yl)-4-hydroxy-5-(2-methoxyethyl)-5-methyl-1,5-dihydro-2H-pyrrol-2-one], the IC50 in test [1] was 923 nM; in test [2], more than 20000 nM.

With `COC1CCC2(C1)NC(=O)C(c1c(C)ccc(-c3ccc(Cl)cc3)c1C)=C2O` (stereo not drawn) [Example 1-48, 3-(4′-chloro-2,4-dimethylbiphenyl-3-yl)-4-hydroxy-7-methoxy-1-azaspiro[4.4]non-3-en-2-one], the IC50 in test [1] is 1010 nM; in test [2] it was 8600 nM.

Take `COCC1CCCC2(C1)NC(=O)C(c1cc(-c3ccc(Cl)cc3)ccc1C)=C2O` (stereo not drawn) [Example 1-51, 3-(4′-chloro-4-methylbiphenyl-3-yl)-4-hydroxy-7-(methoxymethyl)-1-azaspiro[4.5]dec-3-en-2-one]: the IC50 in test [1] is 473 nM; in test [2], 4910 nM.

On to `COCC1CCCC2(C1)NC(=O)C(c1cc(-c3ccc(Cl)cc3)ccc1Cl)=C2O` (stereo not drawn) [Example 1-52, 3-(4,4′-dichlorobiphenyl-3-yl)-4-hydroxy-7-(methoxymethyl)-1-azaspiro[4.5]dec-3-en-2-one], for which the results for the IC50 in test [1] and in test [2] were 1270 nM and more than 20000 nM, respectively.

For `COCC1CCC2(CC1)NC(=O)C(c1c(C)ccc(-c3ccc(Cl)cc3)c1C)=C2O` (stereo not drawn) [Example 1-53, 3-(4′-chloro-2,4-dimethylbiphenyl-3-yl)-4-hydroxy-8-(methoxymethyl)-1-azaspiro[4.5]dec-3-en-2-one], the values for the IC50 in test [1] and in test [2] were 506 nM and 214 nM, respectively.

As for `COCC1CCC2(CC1)NC(=O)C(c1cc(-c3ccc(Cl)cc3)ccc1Cl)=C2O` (stereo not drawn) [Example 1-54, 3-(4,4′-dichlorobiphenyl-3-yl)-4-hydroxy-8-(methoxymethyl)-1-azaspiro[4.5]dec-3-en-2-one], the IC50 was 220 nM in test [1] and 1100 nM in test [2].

These data come from patent US20120129833A1, “CYCLIC KETOENOLS FOR THERAPY” (BAYER PHARMA AKTIENGESELLSCHAFT, priority 2010, published 2012).
